≈ marks a conversion by molar mass, not a printed value. Where “and” joins values, the source holds several entries; their conditions need not be identical. Identical values can stand only once.
Columns and labels:
[1] = Fraction unbound in plasma
[2] = Aqueous solubility of the compound; conditions: aqueous medium
[3] = Clearance in mouse at 3 mg/kg, iv and 10 mg/kg, po; format: ADME, organism-based; conditions: in vivo
[4] = Half life in mouse at 3 mg/kg, iv and 10 mg/kg, po; format: ADME, organism-based; conditions: in vivo
[5] = Volume of distribution at steady state in mouse at 3 mg/kg, iv and 10 mg/kg, po; format: ADME, organism-based; conditions: in vivo, read-out: Vdss
[6] = Bioavailability in mouse at 3 mg/kg, iv and 10 mg/kg, po; format: ADME, organism-based; conditions: in vivo
[7] = Clearance in rat at 3 mg/kg, iv and 10 mg/kg, po; format: ADME, organism-based; conditions: in vivo
[8] = Half life in rat at 3 mg/kg, iv and 10 mg/kg, po; format: ADME, organism-based; conditions: in vivo
[9] = Volume of distribution at steady state in rat at 3 mg/kg, iv and 10 mg/kg, po; format: ADME, organism-based; conditions: in vivo, read-out: Vdss
[10] = Bioavailability in rat at 3 mg/kg, iv and 10 mg/kg, po; format: ADME, organism-based; conditions: in vivo
[11] = Clearance in dog at 3 mg/kg, iv and 5 mg/kg, po; format: ADME, organism-based, Canis lupus familiaris; conditions: in vivo
[12] = Half life in dog at 3 mg/kg, iv and 5 mg/kg, po; format: ADME, organism-based, Canis lupus familiaris; conditions: in vivo
[13] = Volume of distribution at steady state in dog at 3 mg/kg, iv and 5 mg/kg, po; format: ADME, organism-based, Canis lupus familiaris; conditions: in vivo, read-out: Vdss
[14] = Bioavailability in dog at 3 mg/kg, iv and 5 mg/kg, po; format: ADME, organism-based, Canis lupus familiaris; conditions: in vivo
NIH3T3 = experiment: Antiproliferative activity against mouse 3T3 cells expressing human CSF1R after 72 hrs by Celltiter assay; format: functional
[15] = target: Macrophage colony-stimulating factor 1 receptor (Homo sapiens) (UniProt P07333); experiment: Inhibition of CSF1R at 1 uM
Sequence of Macrophage colony-stimulating factor 1 receptor (Homo sapiens) (P07333 whole entry): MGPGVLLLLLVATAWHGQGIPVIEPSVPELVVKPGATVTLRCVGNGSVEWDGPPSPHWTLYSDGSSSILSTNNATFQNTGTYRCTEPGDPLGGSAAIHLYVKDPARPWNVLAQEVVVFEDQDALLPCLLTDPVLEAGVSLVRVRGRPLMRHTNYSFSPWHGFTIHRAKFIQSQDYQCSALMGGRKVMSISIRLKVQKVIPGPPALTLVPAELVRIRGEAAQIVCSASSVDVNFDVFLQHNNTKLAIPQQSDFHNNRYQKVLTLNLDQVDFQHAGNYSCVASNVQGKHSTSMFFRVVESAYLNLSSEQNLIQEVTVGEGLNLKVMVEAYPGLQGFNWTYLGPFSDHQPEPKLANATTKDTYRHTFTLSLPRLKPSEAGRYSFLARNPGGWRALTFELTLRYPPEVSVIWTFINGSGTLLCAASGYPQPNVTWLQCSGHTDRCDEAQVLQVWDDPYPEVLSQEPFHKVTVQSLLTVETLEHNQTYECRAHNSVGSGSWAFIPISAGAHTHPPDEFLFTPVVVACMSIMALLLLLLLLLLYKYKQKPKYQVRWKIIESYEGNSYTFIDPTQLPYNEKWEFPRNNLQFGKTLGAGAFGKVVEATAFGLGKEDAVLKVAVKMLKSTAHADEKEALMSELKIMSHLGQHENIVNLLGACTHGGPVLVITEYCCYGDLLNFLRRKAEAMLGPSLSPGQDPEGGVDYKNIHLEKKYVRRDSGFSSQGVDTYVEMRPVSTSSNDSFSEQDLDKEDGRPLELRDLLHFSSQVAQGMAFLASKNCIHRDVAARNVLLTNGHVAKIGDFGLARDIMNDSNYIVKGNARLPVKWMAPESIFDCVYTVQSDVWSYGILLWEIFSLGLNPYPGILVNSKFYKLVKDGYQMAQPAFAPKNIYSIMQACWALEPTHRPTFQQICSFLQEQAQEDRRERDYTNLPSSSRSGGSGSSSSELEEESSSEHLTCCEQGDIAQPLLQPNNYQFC

[16] = target: Macrophage colony-stimulating factor 1 receptor (Homo sapiens) (UniProt P07333); experiment: Inhibition of CSF1R at 0.1 uM
[17] = target: Mast/stem cell growth factor receptor Kit (Homo sapiens) (UniProt P10721); experiment: Inhibition of c-Kit at 1 uM
Sequence of Mast/stem cell growth factor receptor Kit (Homo sapiens) (P10721 whole entry): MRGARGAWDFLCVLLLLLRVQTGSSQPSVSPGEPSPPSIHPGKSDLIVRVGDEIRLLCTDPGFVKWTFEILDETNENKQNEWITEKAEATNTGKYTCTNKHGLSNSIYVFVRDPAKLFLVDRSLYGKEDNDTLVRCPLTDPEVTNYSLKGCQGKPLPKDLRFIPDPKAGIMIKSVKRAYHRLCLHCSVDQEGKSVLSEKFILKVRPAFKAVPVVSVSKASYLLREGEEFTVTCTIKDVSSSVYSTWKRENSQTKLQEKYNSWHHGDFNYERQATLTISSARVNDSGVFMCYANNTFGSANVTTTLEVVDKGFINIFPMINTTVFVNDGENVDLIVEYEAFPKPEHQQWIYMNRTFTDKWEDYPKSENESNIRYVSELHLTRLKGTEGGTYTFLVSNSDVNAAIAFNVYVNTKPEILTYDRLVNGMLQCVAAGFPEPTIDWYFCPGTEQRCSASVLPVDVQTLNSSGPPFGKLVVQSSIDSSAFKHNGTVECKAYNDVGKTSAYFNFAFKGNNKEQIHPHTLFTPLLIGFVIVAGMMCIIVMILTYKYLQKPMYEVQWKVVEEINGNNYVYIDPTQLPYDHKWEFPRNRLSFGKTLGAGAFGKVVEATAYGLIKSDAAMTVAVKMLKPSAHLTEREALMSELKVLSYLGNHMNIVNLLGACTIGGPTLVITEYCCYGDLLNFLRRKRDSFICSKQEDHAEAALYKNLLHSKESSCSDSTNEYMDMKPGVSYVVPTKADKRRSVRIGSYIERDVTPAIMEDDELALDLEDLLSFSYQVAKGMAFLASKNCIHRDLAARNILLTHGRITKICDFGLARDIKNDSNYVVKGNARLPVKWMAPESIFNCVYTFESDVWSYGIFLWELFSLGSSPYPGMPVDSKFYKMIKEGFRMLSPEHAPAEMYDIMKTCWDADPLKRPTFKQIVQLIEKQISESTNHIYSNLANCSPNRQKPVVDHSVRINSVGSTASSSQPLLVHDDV

[18] = target: Mast/stem cell growth factor receptor Kit (Homo sapiens) (UniProt P10721); experiment: Inhibition of c-Kit at 0.1 uM
[19] = target: T1, NUAK family SNF1-like kinase 1 (Homo sapiens) (UniProt O60285); experiment: Inhibition of ARK5 at 1 uM
T1 sequence (whole entry): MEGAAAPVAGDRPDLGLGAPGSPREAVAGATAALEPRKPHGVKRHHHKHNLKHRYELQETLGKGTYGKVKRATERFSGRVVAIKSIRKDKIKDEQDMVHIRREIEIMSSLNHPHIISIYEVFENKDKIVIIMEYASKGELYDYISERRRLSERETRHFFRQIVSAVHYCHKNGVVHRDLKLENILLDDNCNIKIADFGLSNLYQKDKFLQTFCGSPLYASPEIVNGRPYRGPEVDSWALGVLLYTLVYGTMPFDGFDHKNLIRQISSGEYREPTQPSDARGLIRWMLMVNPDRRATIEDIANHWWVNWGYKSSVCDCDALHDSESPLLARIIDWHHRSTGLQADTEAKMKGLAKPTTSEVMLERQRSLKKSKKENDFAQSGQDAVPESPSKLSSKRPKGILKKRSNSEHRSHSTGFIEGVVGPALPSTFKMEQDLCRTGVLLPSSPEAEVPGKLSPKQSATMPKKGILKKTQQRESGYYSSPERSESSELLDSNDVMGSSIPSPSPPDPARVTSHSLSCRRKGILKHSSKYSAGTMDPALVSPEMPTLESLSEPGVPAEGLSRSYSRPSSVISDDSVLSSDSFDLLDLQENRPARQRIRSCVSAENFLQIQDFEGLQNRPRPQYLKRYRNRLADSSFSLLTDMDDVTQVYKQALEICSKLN

[20] = target: T1, NUAK family SNF1-like kinase 1 (Homo sapiens); experiment: Inhibition of ARK5 at 0.1 uM
[21] = target: Ribosomal protein S6 kinase alpha-1 (Homo sapiens) (UniProt Q15418); experiment: Inhibition of Rsk1 at 1 uM
Sequence of Ribosomal protein S6 kinase alpha-1 (Homo sapiens) (Q15418 whole entry): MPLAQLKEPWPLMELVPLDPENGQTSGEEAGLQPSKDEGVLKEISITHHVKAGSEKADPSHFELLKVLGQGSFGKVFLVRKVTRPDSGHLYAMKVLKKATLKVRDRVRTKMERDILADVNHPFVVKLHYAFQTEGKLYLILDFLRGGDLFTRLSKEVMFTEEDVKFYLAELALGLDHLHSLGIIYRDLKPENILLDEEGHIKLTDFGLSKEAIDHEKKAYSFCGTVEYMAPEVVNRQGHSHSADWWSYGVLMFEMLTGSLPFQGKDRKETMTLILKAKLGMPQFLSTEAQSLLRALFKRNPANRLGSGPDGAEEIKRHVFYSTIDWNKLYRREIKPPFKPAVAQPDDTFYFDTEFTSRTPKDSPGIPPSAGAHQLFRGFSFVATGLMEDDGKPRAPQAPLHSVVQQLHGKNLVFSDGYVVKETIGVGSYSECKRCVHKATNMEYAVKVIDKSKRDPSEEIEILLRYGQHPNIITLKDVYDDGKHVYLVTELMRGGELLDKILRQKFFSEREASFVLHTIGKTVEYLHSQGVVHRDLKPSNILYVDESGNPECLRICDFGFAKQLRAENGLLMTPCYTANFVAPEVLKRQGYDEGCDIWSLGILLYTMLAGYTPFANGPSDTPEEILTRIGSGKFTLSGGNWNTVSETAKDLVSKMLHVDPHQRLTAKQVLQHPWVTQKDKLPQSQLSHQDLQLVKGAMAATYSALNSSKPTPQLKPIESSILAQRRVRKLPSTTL

[22] = target: Ribosomal protein S6 kinase alpha-1 (Homo sapiens) (UniProt Q15418); experiment: Inhibition of Rsk1 at 0.1 uM
[23] = target: Maternal embryonic leucine zipper kinase (Homo sapiens) (UniProt Q14680); experiment: Inhibition of MELK at 1 uM
Sequence of Maternal embryonic leucine zipper kinase (Homo sapiens) (Q14680 whole entry, looked up): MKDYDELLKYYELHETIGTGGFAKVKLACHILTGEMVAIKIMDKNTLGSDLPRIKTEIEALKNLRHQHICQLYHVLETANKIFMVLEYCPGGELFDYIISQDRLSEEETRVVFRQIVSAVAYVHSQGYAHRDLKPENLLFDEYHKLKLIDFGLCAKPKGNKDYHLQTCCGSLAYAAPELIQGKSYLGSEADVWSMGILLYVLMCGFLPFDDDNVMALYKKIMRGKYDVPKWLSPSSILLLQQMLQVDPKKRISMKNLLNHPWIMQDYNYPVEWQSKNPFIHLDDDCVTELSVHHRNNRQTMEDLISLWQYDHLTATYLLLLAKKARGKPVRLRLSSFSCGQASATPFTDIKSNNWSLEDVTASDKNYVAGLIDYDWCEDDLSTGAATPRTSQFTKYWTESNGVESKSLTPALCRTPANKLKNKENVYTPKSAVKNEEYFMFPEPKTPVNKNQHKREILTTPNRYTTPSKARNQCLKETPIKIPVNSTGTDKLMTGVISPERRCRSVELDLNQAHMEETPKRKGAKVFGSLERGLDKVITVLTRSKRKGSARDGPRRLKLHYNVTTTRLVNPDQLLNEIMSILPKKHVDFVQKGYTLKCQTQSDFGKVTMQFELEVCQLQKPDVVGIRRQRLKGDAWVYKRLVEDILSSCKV

[24] = target: Maternal embryonic leucine zipper kinase (Homo sapiens) (UniProt Q14680); experiment: Inhibition of MELK at 0.1 uM

Row | fraction unbound [1] | solubility [2] [µM] | Structure (SMILES) | Activity (NIH3T3) | further results
1 | 0.016 | 27 (≈ 11.8 µg/mL) | CCOc1cc2nnc(C(N)=O)c(Nc3ccc(C)cc3F)c2cc1N1CCN(C)CC1 | – | clearance [3]: 12 mL/min/kg; half-life [4]: 0.9 h; Vd [5]: 0.6 L/kg; bioavailability [6]: 82%; clearance [7]: 10 mL/min/kg; half-life [8]: 9.7 h; Vd [9]: 2.8 L/kg; bioavailability [10]: 90%; clearance [11]: 2 mL/min/kg; half-life [12]: 12.6 h; Vd [13]: 1.8 L/kg; bioavailability [14]: 78%
2 | – | 22 (≈ 9.34 µg/mL) | COc1cc2nnc(C(N)=O)c(Nc3cc(C)ccc3F)c2cc1N1CCN(C)CC1 | 0.057 µM | –
3 | – | 18 (≈ 8.26 µg/mL) | CCOc1cc2nnc(C(N)=O)c(Nc3cccc(Cl)c3F)c2cc1N1CCN(C)CC1 | – | –
4 | – | < 1 | COc1cc2nnc(C(N)=O)c(Nc3cccc(Cl)c3F)c2cc1OC | 0.08 µM and 0.12 µM | –
5 | < 0.017 | 10 (≈ 4.75 µg/mL) | CCOc1cc2nnc(C(N)=O)c(Nc3cccc(Cl)c3Cl)c2cc1N1CCN(C)CC1 | – | –
6 | – | – | COc1cc2nnc(C(N)=O)c(Nc3ccc(C)cc3F)c2cc1N1CCN(C)CC1 | 0.025 µM | –
7 | – | < 1 | COc1cc2nnc(C(N)=O)c(Nc3cccc(Cl)c3Cl)c2cc1OC | 0.05 µM and 0.09 µM | –
8 | – | < 1 | COc1cc2nnc(C(N)=O)c(Nc3cc(C)ccc3F)c2cc1OC | 0.2 µM and 0.21 µM | –
9 | 0.11 | 120 (≈ 52.6 µg/mL) | CCOc1cc2nnc(C(N)=O)c(Nc3cc(C)ccc3F)c2cc1N1CCN(C)CC1 | 0.04 µM and 0.09 µM | –
10 | – | 3 (≈ 1.08 µg/mL) | COc1cc2nnc(C(N)=O)c(Nc3ccc(F)cc3F)c2cc1OC | 0.16 µM and 0.4 µM | –
11 | – | < 1 | COc1cc2nnc(C(N)=O)c(Nc3ccc(C)cc3F)c2cc1OC | 0.11 µM and 0.25 µM | –
12 | 0.039 | – | CCOc1cc2nnc(C(N)=O)c(Nc3ccc(F)cc3F)c2cc1N1CCN(C)CC1 | – | inhibition [15]: 95%; inhibition [16]: 100%; inhibition [17]: 90%; inhibition [18]: 35%; inhibition [19]: 78%; inhibition [20]: 23%; inhibition [21]: 44%; inhibition [22]: 7%; inhibition [23]: 41%; inhibition [24]: 15%
13 | 0.096 | 290 (≈ 124 µg/mL) | COc1cc2nnc(C(N)=O)c(Nc3ccc(F)cc3F)c2cc1N1CCN(C)CC1 | – | –
14 | – | 110 (≈ 48.9 µg/mL) | COc1cc2nnc(C(N)=O)c(Nc3cccc(Cl)c3F)c2cc1N1CCN(C)CC1 | 0.021 µM | –
